Measured values reported in patent US20160318933A1, “FUSED PYRAZOLE DERIVATIVE” (SUMITOMO DAINIPPON PHARMA CO., LTD., priority 2013, published 2016).
Where a name gives a salt, the structure may show the parent alone.

Molecular target: T1, human brain-derived dopamine D4 receptor (Homo sapiens, UniProt P21917)
T1 construct: expressed in transfected cells; host or cells: CHO (CHO-K1) or HEK293 cells
T1 sequence (P21917 1-419): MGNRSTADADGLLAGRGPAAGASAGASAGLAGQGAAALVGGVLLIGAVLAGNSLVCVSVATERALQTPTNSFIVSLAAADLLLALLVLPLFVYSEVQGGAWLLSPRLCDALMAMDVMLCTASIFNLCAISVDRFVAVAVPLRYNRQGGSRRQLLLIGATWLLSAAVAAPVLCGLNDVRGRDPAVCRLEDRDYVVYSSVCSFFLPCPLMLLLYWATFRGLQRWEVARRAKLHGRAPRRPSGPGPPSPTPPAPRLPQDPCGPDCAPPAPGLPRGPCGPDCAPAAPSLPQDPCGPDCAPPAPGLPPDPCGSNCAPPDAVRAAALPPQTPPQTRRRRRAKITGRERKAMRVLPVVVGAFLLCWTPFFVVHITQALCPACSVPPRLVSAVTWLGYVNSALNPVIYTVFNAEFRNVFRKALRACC
Experiment: Agonistic activity in G protein dependent pathway of dopamine D4 receptor (aequorin intracellular calcium luminescence, FDSS)
Assay type: cell-based
Settings: for EC50: concentration required to achieve a 50% response of Emax, CHO-K1 or HEK293 cells transfected with D4 receptor; for Emax: read-out: Maximal activity on D4 receptor (%)
Source text: The G protein dependent pathway is a pathway for transmitting signals in cells via a second messenger by stimulating a G protein through the binding of guanosine triphosphate (GTP) to the G protein. When GPCRs are activated by the binding of a ligand, a G protein binds to the GPCRs, and thereby GTP binds to a Gα subunit that is one of G protein subunits and a Gγβ subunit is dissociated. The activated Gα subunit regulates intracellular cAMP levels by the activation or inhibition of an adenylate cyclase, and regulates intracellular calcium levels by the activation of phospholipase C to transmit signals in cells.
The agonistic activities of the present compounds in the G protein dependent pathway were evaluated on the basis of intracellular calcium levels as follows. CHO-K1 or HEK293 cell lines transfected with D4 receptor genes were seeded in a 384-well plate, and incubated in a CO2 incubator at 37° C. for 24 hours, and then a solution of the present compound in DMSO was added into cells preloaded with coelenterazine to measure the change in luminescent signals with a FDSS (Hamamatsu Photonics K.K.). […] The agonistic activity of the present compound was calculated according to the measured luminescent signals, as the maximal activity (Emax) of the present compound. EC50 value was calculated as the concentration of the present compound required to achieve a 50% response of Emax.

| EC50 [nM] | Emax [%] | Structure (SMILES) |
| --- | --- | --- |
| 11 | 91 | Cc1cccc(CN2CCn3nc(-c4ncccc4F)c(C)c3C2)n1 [Example 126] |
| 56 | 89 | Cc1c(-c2ncccc2F)nn2c1CN(Cc1ccc(C(F)(F)F)nc1)CC2 [Example 127] |
| 20 | 71 | Fc1cccnc1-c1cc2n(n1)CCN(Cc1ccc3c(n1)CCCC3)C2 [Example 130] |
| 22 | 66 | Cc1ccc(CN2CCn3nc(-c4ncccc4C)cc3C2)nc1C [Example 131] |
| 5 | 47 | Cc1cccnc1-c1cc2n(n1)CCN(Cc1ccc(C(F)F)cn1)C2 [Example 133] |
| 42 | 62 | Cc1c(-c2ccccn2)nn2c1CN(Cc1ccc(CF)nc1)CC2 [Example 134] |
| 49 | 54 | Cc1cccnc1-c1cc2n(n1)CCN(Cc1ccc(F)c(C)n1)C2 [Example 135] |
| 63 | 52 | Cc1cccnc1-c1cc2n(n1)CCN(Cc1cc3c(cn1)OCCC3)C2 [Example 136] |
| 10 | 82 | Cc1cccnc1-c1cc2n(n1)CCN(Cc1cccc(CF)n1)C2 [Example 137] |
| 50 | 49 | Cc1cccnc1-c1cc2n(n1)CCN(Cc1ccc(C(F)F)nc1)C2 [Example 138] |
| 0.6 | 56 | Cc1nc(CN2CCn3nc(-c4ncccc4C)cc3C2)cs1 [Example 139] |
| 86 | 85 | FC(F)(F)c1cccnc1-c1cc2n(n1)CCN(Cc1ccccc1)C2 [Example 140, 5-Benzyl-2-[3-(trifluoromethyl)pyridin-2-yl]-4,5,6,7-tetrahydropyrazolo[1,5-a]pyrazine] |
| 87 | 56 | Cc1ncc(CN2CCn3nc(-c4ccccn4)c(F)c3C2)c(N)n1 [Example 141] |
| 68 | 82 | Cc1ncc(CN2CCn3nc(-c4ccccn4)c(C)c3C2)c(N)n1 [Example 142] |
| 80 | 48 | Cc1cccnc1-c1cc2n(n1)CCN(Cc1ccc(C(F)(F)F)nc1)C2 [Example 143, 2-(3-Methylpyridin-2-yl)-5-{[6-(trifluoromethyl)pyridin-3-yl]methyl}-4,5,6,7-tetrahydropyrazolo[1,5-a]pyrazine] |
| 45 | 52 | Cc1cccnc1-c1cc2n(n1)CCN(Cc1cc3ccccc3[nH]1)C2 [Example 145] |
| 90 | 48 | Cc1cccnc1-c1cc2n(n1)CCN(Cc1cc3ccccc3n1C)C2 [Example 146] |
| 33 | 59 | Cc1cccnc1-c1cc2n(n1)CCN(Cc1c[nH]c3ccccc13)C2 [Example 147] |
| 47 | 71 | Cc1cccnc1-c1cc2n(n1)CCN(Cc1cn(C)c3ccccc13)C2 [Example 148] |

| EC50 [nM] | Emax [%] | Structure (SMILES) |
| --- | --- | --- |
| 107 | 53 | Cc1cccnc1-c1cc2n(n1)CCN(Cc1c3ccccc3nn1C)C2 [Example 149] |
| 38 | 71 | Cn1c(CN2CCn3nc(-c4ncccc4F)cc3C2)cc2ccccc21 [Example 150] |
| 103 | 69 | Nc1ncc(CN2CCn3nc(-c4ncccc4F)cc3C2)cn1 [Example 151] |
| 107 | 74 | Cc1cccc(CN2CCn3nc(-c4ncccc4C(F)(F)F)cc3C2)n1 [Example 152] |
| 94 | 57 | Cn1nc(CN2CCn3nc(-c4ncccc4C(F)(F)F)cc3C2)c2ccccc21 [Example 153] |
| 101 | 57 | Cc1cnc(CN2CCn3nc(-c4ncccc4C)cc3C2)cn1 [Example 154] |
| 55 | 70 | Cc1cccc(CN2CCn3nc(-c4ncccc4C)cc3C2)n1 [Example 156] |
| 127 | 50 | Cc1cccnc1-c1cc2n(n1)CCN(Cc1ccc(CO)cn1)C2 [Example 157] |
| 65 | 74 | Cc1cccnc1-c1cc2n(n1)CCN(Cc1nn(C)c3ccccc13)C2 [Example 158] |
| 92 | 64 | Cc1cnc(CN2CCn3nc(-c4ncccc4F)cc3C2)cn1 [Example 159] |
| 111 | 53 | Fc1ccc(CN2CCn3nc(-c4ncccc4F)cc3C2)nc1 [Example 160] |
| 26 | 74 | Cc1cccc(CN2CCn3nc(-c4ncccc4F)cc3C2)n1 [Example 161] |
| 59 | 62 | Fc1cccnc1-c1cc2n(n1)CCN(Cc1ccc(C(F)(F)F)nc1)C2 [Example 162] |
| 55 | 57 | Fc1cccnc1-c1cc2n(n1)CCN(Cc1ccc(C(F)(F)F)cn1)C2 [Example 163] |
| 55 | 64 | Cn1c(CN2CCn3nc(-c4ncccc4F)cc3C2)nc2ccccc21 [Example 164] |
| 22 | 65 | Fc1cccnc1-c1cc2n(n1)CCN(Cc1c[nH]c3ccccc13)C2 [Example 165] |
| 44 | 85 | Cn1cc(CN2CCn3nc(-c4ncccc4F)cc3C2)c2ccccc21 [Example 166] |
| 17 | 69 | Cn1nc(CN2CCn3nc(-c4ncccc4F)cc3C2)c2ccccc21 [Example 167] |
| 82 | 65 | Cn1nc2ccccc2c1CN1CCn2nc(-c3ncccc3F)cc2C1 [Example 168] |

| EC50 [nM] | Emax [%] | Structure (SMILES) |
| --- | --- | --- |
| 51 | 80 | Fc1ccc(CN2CCn3nc(-c4ncccc4F)cc3C2)cn1 [Example 169] |
| 152 | 48 | Cc1ncc(CN2CCn3nc(-c4ncccc4C)cc3C2)cn1 [Example 170] |
| 252 | 48 | Cc1ncc(CN2CCn3nc(-c4ncccc4F)cc3C2)cn1 [Example 171] |
| 90 | 53 | Cc1ncc(CN2CCn3nc(-c4ccccn4)c(Cl)c3C2)c(N)n1 [Example 172, 5-{[3-Chloro-2-(pyridin-2-yl)-6,7-dihydropyrazolo[1,5-a]pyrazin-5 (4H)-yl]methyl}-2-methylpyrimidine-4-amine] |
| 12 | 63 | Clc1c(-c2ccccn2)nn2c1CN(Cc1ccccc1)CC2 [Example 173, 5-Benzyl-3-chloro-2-(pyridin-2-yl)-4,5,6,7-tetrahydropyrazolo[1,5-a]pyrazine] |
| 92 | 50 | FC(F)(F)c1c(-c2ccccn2)nn2c1CN(Cc1ccccc1)CC2 [Example 175] |
| 41 | 39 | Cc1ccc(CN2CCn3nc(-c4ncccn4)cc3C2)cc1 [Example 176] |
| 141 | 39 | Cc1cccnc1-c1cc2n(n1)CCN(Cc1ccc(OC(F)(F)F)c(F)c1)C2 [Example 177, 5-[3-Fluoro-4-(trifluoromethoxy)benzyl]-2-(3-methylpyridin-2-yl)-4,5,6,7-tetrahydropyrazolo[1,5-a]pyrazine monohydrochloride] |
| 32 | 50 | Cc1cccnc1-c1cc2n(n1)CCN(Cc1ccc(Cl)c(C)n1)C2 [Example 178] |
| 64 | 38 | Cc1c(-c2ncccc2F)nn2c1CN(Cc1ccc(C(F)F)cn1)CC2 [Example 179] |
| 38 | 63 | Cc1cccnc1-c1cc2n(n1)CCN(Cc1ccc(CF)c(C)n1)C2 [Example 180] |
| 43 | 43 | Cc1cccnc1-c1cc2n(n1)CCN(Cc1cc3c(cn1)CCC3)C2 [Example 181] |
| 79 | 47 | Cc1cccnc1-c1cc2n(n1)CCN(Cc1cc3c(cn1)COC3)C2 [Example 182] |
| 108 | 49 | Cc1cccnc1-c1cc2n(n1)CCN(Cc1ncc(Br)cc1F)C2 [Example 183] |
| 116 | 51 | Cc1cnc(CN2CCn3nc(-c4ncccc4C)cc3C2)c(F)c1 [Example 184] |
| 82 | 51 | Cc1cccnc1-c1cc2n(n1)CCN(Cc1cc3c(cn1)OCC3)C2 [Example 185] |
| 51 | 44 | Cc1cccnc1-c1cc2n(n1)CCN(Cc1cnc3c(c1)CCCC3)C2 [Example 186] |
| 32 | 66 | Cc1cc(CN2CCn3nc(-c4ncccc4C)cc3C2)cnc1Cl [Example 187] |
| 44 | 63 | Cc1cc(CN2CCn3nc(-c4ncccc4C)cc3C2)cnc1C [Example 188] |
